Measured values reported in ChEMBL document CHEMBL4706588, “Rational design and biological evaluation of a new class of thiazolopyridyl tetrahydroacridines as cholinesterase and GSK-3 dual inhibitors for Alzheimer's disease” (Eur J Med Chem, 2020).
Calls of active or inactive are those of the source. The calls are words filed in the database; no cut-off is given here.

Experiments:
[1] = target: Cholinesterase (Homo sapiens, UniProt P06276); assay: Inhibition of human BuChE using butyrylthiocholine iodide as substrate preincubated with enzyme for 1 min followed by substrate addition and measured after 10 mins by Ellman's method
Cholinesterase, sequence (P06276 whole entry): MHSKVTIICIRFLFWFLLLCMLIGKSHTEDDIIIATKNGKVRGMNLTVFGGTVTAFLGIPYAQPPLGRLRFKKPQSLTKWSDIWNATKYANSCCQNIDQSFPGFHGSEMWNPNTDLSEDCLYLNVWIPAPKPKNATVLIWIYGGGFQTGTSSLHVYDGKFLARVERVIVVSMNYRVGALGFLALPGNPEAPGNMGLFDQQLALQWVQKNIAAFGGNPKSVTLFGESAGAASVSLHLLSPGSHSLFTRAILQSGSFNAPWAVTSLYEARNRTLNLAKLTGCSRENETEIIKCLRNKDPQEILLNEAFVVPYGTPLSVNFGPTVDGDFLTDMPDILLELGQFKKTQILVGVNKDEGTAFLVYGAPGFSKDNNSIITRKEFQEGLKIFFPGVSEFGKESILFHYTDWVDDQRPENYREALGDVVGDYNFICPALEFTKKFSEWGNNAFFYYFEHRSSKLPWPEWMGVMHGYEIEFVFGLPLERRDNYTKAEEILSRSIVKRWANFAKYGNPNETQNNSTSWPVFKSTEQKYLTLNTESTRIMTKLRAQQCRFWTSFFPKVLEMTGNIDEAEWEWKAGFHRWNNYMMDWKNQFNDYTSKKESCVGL

[2] = target: Acetylcholinesterase (Homo sapiens, UniProt P22303); assay: Inhibition of human AChE using acetylthiocholine iodide as substrate preincubated with enzyme for 1 min followed by substrate addition and measured after 10 mins by Ellman's method
Acetylcholinesterase, sequence (P22303 whole entry): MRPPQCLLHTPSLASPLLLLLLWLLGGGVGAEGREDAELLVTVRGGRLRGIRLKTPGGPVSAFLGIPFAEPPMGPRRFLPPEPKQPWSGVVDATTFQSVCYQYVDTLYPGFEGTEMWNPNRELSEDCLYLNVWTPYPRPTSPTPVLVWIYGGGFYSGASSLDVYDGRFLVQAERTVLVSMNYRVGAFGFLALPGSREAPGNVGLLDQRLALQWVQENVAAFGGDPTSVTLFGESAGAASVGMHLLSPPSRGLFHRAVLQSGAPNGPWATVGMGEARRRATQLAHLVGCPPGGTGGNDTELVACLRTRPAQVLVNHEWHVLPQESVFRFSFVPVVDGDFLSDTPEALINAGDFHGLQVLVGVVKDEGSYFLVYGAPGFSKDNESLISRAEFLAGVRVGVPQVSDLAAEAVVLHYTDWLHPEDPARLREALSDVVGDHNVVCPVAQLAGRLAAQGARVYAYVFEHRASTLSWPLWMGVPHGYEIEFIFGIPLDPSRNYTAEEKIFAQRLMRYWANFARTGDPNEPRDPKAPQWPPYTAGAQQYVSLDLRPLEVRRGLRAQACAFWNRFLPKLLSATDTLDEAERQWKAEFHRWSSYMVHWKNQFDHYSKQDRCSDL

[3] = target: Glycogen synthase kinase-3 beta (Homo sapiens, UniProt P49841); assay: biochemical
Glycogen synthase kinase-3 beta, sequence (P49841 whole entry): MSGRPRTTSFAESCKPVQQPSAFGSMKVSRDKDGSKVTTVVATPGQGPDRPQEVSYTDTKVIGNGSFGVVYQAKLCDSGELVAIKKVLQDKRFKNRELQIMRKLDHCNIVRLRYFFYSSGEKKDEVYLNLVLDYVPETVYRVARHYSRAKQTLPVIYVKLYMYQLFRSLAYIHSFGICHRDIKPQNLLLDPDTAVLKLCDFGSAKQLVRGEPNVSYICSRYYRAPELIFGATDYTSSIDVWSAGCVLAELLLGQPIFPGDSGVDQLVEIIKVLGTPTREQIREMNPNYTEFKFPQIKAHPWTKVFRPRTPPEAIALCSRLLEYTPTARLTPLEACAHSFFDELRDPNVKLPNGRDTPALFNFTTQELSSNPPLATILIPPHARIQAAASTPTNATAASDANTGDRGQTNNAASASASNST
Description: Inhibition of recombinant human N-terminal His6-tagged GSK-3beta H350L mutant expressed in baculovirus infected Sf21 cells using GSM as substrate incubated for 30 mins in presence of ATP by kinase-glo luminescence assay

[4] = in vitro; conditions: PAMPA
Description: Effective permeability of compound at 100 ug/ml incubated for 20 hrs by PAMPA-BBB assay

[5] = tested on: Mus musculus; assay: Cognitive enhancing effect in ICR mouse model of scopolamine-induced memory impairment assessed as improvement in trajectories to platform at 15 mg/kg, po administered 30 mins prior to scopolamine injection by Morris water maze test; assay type: functional, organism-based
[6] = tested on: BV-2; assay: Inhibition of LPS-induced ROS production in mouse BV-2 cells at 5 uM incubated for 1 hr followed by LPS stimulation and measured after 24 hrs by DCFH-DA staining based inverted fluorescence microscopic analysis; assay type: functional, cell-based; conditions: time 25.0 hrs
[7] = Effect on swimming speed in ICR mouse model of scopolamine-induced memory impairment at 15 mg/kg, po administered 30 mins prior to scopolamine injection by Morris water maze test; assay type: ADME, organism-based; conditions: in vivo, 0.5 h
[8] = Effect on cell morphology in LPS-treated mouse BV-2 cells at 5 uM pretreated for 1 hr followed by incubation with LPS for 24 hrs by fluorescence microscopic analysis; assay type: ADME; conditions: bv-2, 25 h

Row | Structure (SMILES) | IC50 [1] | IC50 [2] | IC50 [3] | Papp at 20 h, 100 ug/ml [4] | Activity [5] | inhibition [6] | Activity [7] | Activity [8]
1 | CCNC(=O)c1sc(-c2ccnc(NC(=O)CNCCNc3c4c(nc5ccccc35)CCCC4)c2)nc1OCC1CC1 | 512 nM | 45.2 nM | 114 nM | – | – | – | – | –
2 | CNC(=O)c1sc(-c2ccnc(NC(=O)C3CC3)c2)nc1OCCCc1cn(CCNc2c3c(nc4ccc(OC)cc24)CCCC3)nn1 | > 1000 nM | > 1000 nM | 14.6 nM | – | – | – | – | –
3 | CCCNC(=O)c1sc(-c2ccnc(NC(=O)CNCCNc3c4c(nc5ccccc35)CCCC4)c2)nc1OCC1CC1 | 89.5 nM | 4.9 nM | 239 nM | – | – | – | – | –
4 | CNC(=O)c1sc(-c2ccnc(NC(=O)C3CC3)c2)nc1OCCCc1cn(CCNc2c3c(nc4ccccc24)CCCC3)nn1 | 170 nM | 168 nM | 64.3 nM | – | – | – | – | –
5 | CNC(=O)c1sc(-c2ccnc(NC(=O)C3CC3)c2)nc1OCCOCc1cn(CCNc2c3c(nc4ccc(OC)cc24)CCCC3)nn1 | > 1000 nM | > 1000 nM | 31 nM | – | – | – | – | –
6 | CNC(=O)c1sc(-c2ccnc(NC(=O)C3CC3)c2)nc1OCCOCc1cn(CCNc2c3c(nc4cc(Cl)ccc24)CCCC3)nn1 | > 1000 nM | 12.1 nM | 26.3 nM | 4.2 ×10⁻⁶ cm/s | – | – | – | –
7 | CNC(=O)c1sc(-c2ccnc(NC(=O)CNCCCCCCNc3c4c(nc5ccccc35)CCCC4)c2)nc1OCC1CC1 | 8.2 nM | 21.9 nM | 62 nM | – | – | – | – | –
8 | CC(=O)Nc1cc(-c2nc(OCC3CC3)c(C(=O)NCCCNc3c4c(nc5ccccc35)CCCC4)s2)ccn1 | 173 nM | 394 nM | 92.8 nM | – | – | – | – | –
9 | COc1nc(-c2ccnc(NC(=O)C3CC3)c2)sc1C(N)=O | > 1000 nM | > 1000 nM | 17.2 nM | – | – | – | – | –
10 | CCn1cc(C(=O)O)c(=O)c2ccc(-n3cccc3)cc21 | – | – | – | 2.5 ×10⁻⁶ cm/s | – | – | – | –
11 | CNC(=O)c1sc(-c2ccnc(NC(=O)C3CC3)c2)nc1OCCOCc1cn(CCNc2c3c(nc4ccccc24)CCCC3)nn1 | 360 nM | 44.7 nM | 20.8 nM | 4.6 ×10⁻⁶ cm/s | Active | Active | Non-Toxic | Non-Toxic
12 | CNC(=O)c1sc(-c2ccnc(NC(=O)CNCCCCNc3c4c(nc5ccccc35)CCCC4)c2)nc1OCC1CC1 | 48.3 nM | 23.1 nM | 41.6 nM | 7.1 ×10⁻⁶ cm/s | – | – | – | –
13 | CNC(=O)c1sc(-c2ccnc(NC(=O)CNCCNc3c4c(nc5ccccc35)CCCC4)c2)nc1OCC1CCC1 | 277 nM | 155 nM | 130 nM | – | – | – | – | –
14 | CNC(=O)c1sc(-c2ccnc(NC(=O)CNCCNc3c4c(nc5ccccc35)CCCC4)c2)nc1OC | 262 nM | 97.4 nM | 41.1 nM | – | – | – | – | –
15 | O=C(NCCCNc1c2c(nc3ccccc13)CCCC2)c1sc(-c2ccnc(NC(=O)C3CC3)c2)nc1OCC1CC1 | 216 nM | 312 nM | 104 nM | – | – | – | – | –
16 | O=C(NCCCNc1c2c(nc3ccccc13)CCCC2)c1sc(-c2ccnc(NC(=O)C3CCC3)c2)nc1OCC1CC1 | 30.7 nM | 295 nM | 80.7 nM | – | – | – | – | –
17 | CCn1cc(C(=O)O)c(=O)c2cc(F)c(N3CCNC(C)C3)c(F)c21 (stereo unspecified) [LOMEFLOXACIN] | – | – | – | 0.9 ×10⁻⁶ cm/s | – | – | – | –
18 | CNC(=O)c1sc(-c2ccnc(NC(=O)C3CC3)c2)nc1OCCc1cn(CCNc2c3c(nc4cc(Cl)ccc24)CCCC3)nn1 | > 1000 nM | 38.7 nM | 46.7 nM | 4.7 ×10⁻⁶ cm/s | – | – | – | –
19 | CNC(=O)c1sc(-c2ccnc(NC(=O)CNCCNc3c4c(nc5ccccc35)CCCC4)c2)nc1OCC(C)(C)C | 236 nM | 103 nM | 165 nM | – | – | – | – | –
20 | CNC(=O)c1sc(-c2ccnc(NC(=O)C3CC3)c2)nc1OCCOCc1cn(-c2c3c(nc4ccccc24)CCCC3)nn1 | 200 nM | > 1000 nM | 83.9 nM | – | – | – | – | –
21 | CNC(=O)c1sc(-c2ccnc(NC(=O)C3CC3)c2)nc1OCCc1cn(-c2c3c(nc4ccccc24)CCCC3)nn1 | 600 nM | > 1000 nM | 51.7 nM | – | – | – | – | –
22 | CNC(=O)c1sc(-c2ccnc(NC(=O)CNCCNc3c4c(nc5ccccc35)CCCC4)c2)nc1OCC(C)C | 619 nM | 49.2 nM | 132 nM | – | – | – | – | –
23 | CNC(=O)c1sc(-c2ccnc(NC(=O)CNCCNc3c4c(nc5ccc(OC)cc35)CCCC4)c2)nc1OCC1CC1 | > 1000 nM | 30.7 nM | 39.3 nM | 5.7 ×10⁻⁶ cm/s | – | – | – | –
24 | CNC(=O)c1sc(-c2ccnc(NC(=O)CNCCNc3c4c(nc5ccccc35)CCCC4)c2)nc1OC(C)C | 330 nM | 237 nM | 71.6 nM | – | – | – | – | –
25 | CNC(=O)c1sc(-c2ccnc(NC(=O)C3CC3)c2)nc1OCCc1cn(CCNc2c3c(nc4ccc(OC)cc24)CCCC3)nn1 | 37.5 nM | > 1000 nM | 37.1 nM | – | – | – | – | –
26 | CNC(=O)c1sc(-c2ccnc(NC(=O)CNCCCCCCCCNc3c4c(nc5ccccc35)CCCC4)c2)nc1OCC1CC1 | 3.2 nM | 15.2 nM | 62.2 nM | – | – | – | – | –
27 | CNC(=O)c1sc(-c2ccnc(NC(=O)C3CC3)c2)nc1OCCc1cn(CCNc2c3c(nc4ccccc24)CCCC3)nn1 | 300 nM | 269 nM | 72 nM | – | – | – | – | –
28 | NC(=O)c1sc(-c2ccnc(NC(=O)CNCCNc3c4c(nc5ccccc35)CCCC4)c2)nc1OCC1CC1 | 190 nM | 0.8 nM | 42.6 nM | 4.9 ×10⁻⁶ cm/s | – | – | – | –
29 | NC(=O)c1sc(-c2ccnc(NC(=O)C3CC3)c2)nc1OCCc1cn(-c2c3c(nc4ccccc24)CCCC3)nn1 | > 1000 nM | > 1000 nM | 6.5 nM | – | – | – | – | –
30 | CNC(=O)c1sc(-c2ccnc(NC(=O)CNCCNc3c4c(nc5cc(Cl)ccc35)CCCC4)c2)nc1OCC1CC1 | 613 nM | 40.5 nM | 62.6 nM | – | – | – | – | –
